Reference: ChEMBL document CHEMBL5214900, “Design, Synthesis, and Biological Evaluation of Membrane-Active Bakuchiol Derivatives as Effective Broad-Spectrum Antibacterial Agents” (J Med Chem, 2021)

Tested on: Pseudomonas aeruginosa
Assay: Antibacterial activity against Pseudomonas aeruginosa ATCC 9027 in C57BL/6 mouse model of bacterial keratitis assessed as log reduction in number of viable bacterial colonies in infected cornea at 3 mg/ml, TOP administered 4 times a day for 3 consecutive days
Format: functional
Details: time 3 day

COc1c(N2CCNC(C)C2)c(F)cc2c(=O)c(C(=O)O)cn(C3CC3)c12 (stereo unspecified) [GATIFLOXACIN]
log(activity): 3.15
